According to US9255100B2 (BAYER INTELLECTUAL PROPERTY GMBH, priority 2010, dated 2016):

Biological target: T1, N-terminally GST-tagged human full length recombinant Mps-1 kinase (Homo sapiens, UniProt P33981)
T1 construct: N-terminally GST-tagged human full length recombinant Mps-1 kinase; purchased Invitrogen, Karslruhe, Germany PV4071
T1 sequence (P33981 1-857): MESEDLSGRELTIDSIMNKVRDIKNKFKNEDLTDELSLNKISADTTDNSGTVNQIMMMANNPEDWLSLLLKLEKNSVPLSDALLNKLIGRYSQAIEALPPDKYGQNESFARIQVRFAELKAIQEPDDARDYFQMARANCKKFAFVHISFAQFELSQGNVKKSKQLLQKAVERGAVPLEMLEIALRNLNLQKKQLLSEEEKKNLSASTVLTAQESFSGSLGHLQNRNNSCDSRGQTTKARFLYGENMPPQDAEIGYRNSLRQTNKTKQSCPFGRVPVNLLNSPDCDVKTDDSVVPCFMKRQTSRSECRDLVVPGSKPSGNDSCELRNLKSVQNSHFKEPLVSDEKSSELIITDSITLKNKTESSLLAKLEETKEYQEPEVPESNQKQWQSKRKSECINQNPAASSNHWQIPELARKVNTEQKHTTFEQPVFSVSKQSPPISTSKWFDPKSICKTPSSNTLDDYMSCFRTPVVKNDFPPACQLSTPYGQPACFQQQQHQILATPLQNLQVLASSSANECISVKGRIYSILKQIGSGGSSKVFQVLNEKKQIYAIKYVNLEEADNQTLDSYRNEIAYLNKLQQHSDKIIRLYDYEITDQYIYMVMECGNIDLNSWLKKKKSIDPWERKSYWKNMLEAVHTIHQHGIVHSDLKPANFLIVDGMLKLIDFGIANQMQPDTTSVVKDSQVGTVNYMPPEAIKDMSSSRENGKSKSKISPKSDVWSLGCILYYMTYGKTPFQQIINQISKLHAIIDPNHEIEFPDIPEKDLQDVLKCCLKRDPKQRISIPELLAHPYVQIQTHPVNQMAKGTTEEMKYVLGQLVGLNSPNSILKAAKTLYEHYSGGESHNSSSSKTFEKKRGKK
Assay: Mps-1 kinase assay (TR-FRET)
Format: biochemical
Conditions: Mps1 IC50 [nM], 10 μM ATP, 1 μM peptide substrate, 60 min at 22° C.
Procedure, shortened: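 Read-out: TR-FRET from Europium-labelled anti-phospho(Ser/Thr) antibody to SA-XLent after 1 h detection incubation at 22° C. Inhibition of kinase activity measured.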

| IC50 | Compound |
| --- | --- |
| 0.4 nM | Cc1cc(-c2cnc3c(NCCN4CCOCC4)cc(Oc4cncc(F)c4)nn23)ccc1C(=O)NC1CC1 [Example 541, N-cyclopropyl-4-(6-[(5-fluoro-pyridin-3-yl)oxy]-8-{[2-(morpholin-4-yl)ethyl]amino}imidazo[1,2-b]pyridazin-3-yl)-2-methylbenzamide] |
| 0.2 nM | Cc1cc(-c2cnc3c(NCC4CN(C)C4)cc(Oc4cccc(F)c4F)nn23)ccc1C(=O)NC1CC1 [Example 543, N-cyclopropyl-4-[6-(2,3-difluorophenoxy)-8-{[(1-methylazetidin-3-yl)methyl]amino}imidazo[1,2-b]pyridazin-3-yl]-2-methylbenzamide] |
| 1.1 nM | Cc1cc(-c2cnc3c(NCC4CNC4)cc(Oc4cncc(F)c4)nn23)ccc1C(=O)NC1CC1 [Example 544, 4-{8-[(azetidin-3-ylmethyl)amino]-6-[(5-fluoropyridin-3-yl)oxy]imidazo[1,2-b]pyridazin-3-yl}-N-cyclopropyl-2-methylbenzamide] |
| 0.1 nM | Cc1ccc(F)cc1Oc1cc(NCC2CNC2)c2ncc(-c3ccc(C(=O)NC4CC4)c(C)c3)n2n1 [Example 545, 4-{8-[(azetidin-3-ylmethyl)amino]-6-(5-fluoro-2-methylphenoxy)imidazo[1,2-b]pyridazin-3-yl}-N-cyclopropyl-2-methylbenzamide] |
| 0.1 nM | Cc1cc(-c2cnc3c(NCCCN)cc(Oc4cccc(F)c4)nn23)ccc1C(=O)NC1CC1 [Example 546, 4-{8-[(3-aminopropyl)amino]-6-(3-fluorophenoxy)imidazo[1,2-b]pyridazin-3-yl}-N-cyclopropyl-2-methylbenzamide] |
| 0.2 nM | Cc1cc(-c2cnc3c(NCCCS(=O)(=O)O)cc(Oc4cccc(F)c4)nn23)ccc1C(=O)NC1CC1 [Example 547, 3-({3-[4-(cyclopropylcarbamoyl)-3-methylphenyl]-6-(3-fluorophenoxy)imidazo[1,2-b]pyridazin-8-yl}amino)propane-1-sulfonic acid] |
| 0.7 nM | Cc1cc(-c2cnc3c(NCCS(=O)(=O)O)cc(Oc4cccc(F)c4)nn23)ccc1C(=O)NC1CC1 [Example 548, 2-({3-[4-(cyclopropylcarbamoyl)-3-methylphenyl]-6-(3-fluorophenoxy)imidazo[1,2-b]pyridazin-8-yl}amino)ethanesulfonic acid] |
| 0.2 nM | Cc1cc(-c2cnc3c(NCCC(N)=O)cc(Oc4cccc(F)c4)nn23)ccc1C(=O)NC1CC1 [Example 549, 4-{8-[(3-amino-3-oxopropyl)amino]-6-(3-fluorophenoxy)imidazo[1,2-b]pyridazin-3-yl}-N-cyclopropyl-2-methyl-benzamide] |
| 0.5 nM | Cc1cc(-c2cnc3c(NCCC(F)(F)F)cc(Oc4cccc(F)c4)nn23)ccc1C(=O)O [Example 550, 4-{6-(3-fluorophenoxy)-8-[(3,3,3-trifluoropropyl)amino]imidazo[1,2-b]pyridazin-3-yl}-2-methylbenzoic acid] |
| 0.2 nM | CNC(=O)c1ccc(-c2cnc3c(NCCC(F)(F)F)cc(Oc4cccc(F)c4)nn23)cc1C [Example 551, 4-{6-(3-fluorophenoxy)-8-[(3,3,3-trifluoropropyl)amino]imidazo[1,2-b]pyridazin-3-yl}-N,2-dimethylbenzamide] |
| 0.2 nM | CCNC(=O)c1ccc(-c2cnc3c(NCCC(F)(F)F)cc(Oc4cccc(F)c4)nn23)cc1C [Example 552, N-ethyl-4-{6-(3-fluorophenoxy)-8-[(3,3,3-trifluoropropyl)amino]imidazo[1,2-b]pyridazin-3-yl}-2-methylbenzamide] |
| 0.7 nM | Cc1cc(-c2cnc3c(NCCC(F)(F)F)cc(Oc4cccc(F)c4)nn23)ccc1C(=O)NC(C)C [Example 553, 4-{6-(3-fluorophenoxy)-8-[(3,3,3-trifluoropropyl)amino]imidazo[1,2-b]pyridazin-3-yl}-N-isopropyl-2-methylbenzamide] |
| 1.6 nM | Cc1cc(-c2cnc3c(NCCC(F)(F)F)cc(Oc4cccc(F)c4)nn23)ccc1C(=O)NCCC(F)(F)F [Example 554, 4-{6-(3-fluorophenoxy)-8-[(3,3,3-trifluoropropyl)amino]imidazo[1,2-b]pyridazin-3-yl}-2-methyl-N-(3,3,3-trifluoropropyl)benzamide] |
| 9.4 nM | Cc1cc(-c2cnc3c(NCCC(F)(F)F)cc(Oc4cccc(F)c4)nn23)ccc1C(=O)NCC(F)(F)C(F)(F)F [Example 555, 4-{6-(3-fluorophenoxy)-8-[(3,3,3-trifluoropropyl)amino]imidazo[1,2-b]pyridazin-3-yl}-2-methyl-N-(2,2,3,3,3-pentafluoropropyl)benzamide] |
| 0.3 nM | Cc1cc(-c2cnc3c(NCCC(F)(F)F)cc(Oc4cccc(F)c4)nn23)ccc1C(=O)NCC(F)F [Example 556, N-(2,2-difluoroethyl)-4-{6-(3-fluorophenoxy)-8-[(3,3,3-trifluoropropyl)amino]imidazo[1,2-b]pyridazin-3-yl}-2-methylbenzamide] |
| 2.2 nM | Cc1cc(-c2cnc3c(NCCC(F)(F)F)cc(Oc4cccc(F)c4)nn23)ccc1C(=O)NCC(C)C [Example 557, 4-{6-(3-fluorophenoxy)-8-[(3,3,3-trifluoropropyl)amino]imidazo[1,2-b]pyridazin-3-yl}-N-isobutyl-2-methylbenzamide] |

Continued, compound first:

| Compound | IC50 |
| --- | --- |
| CNc1cc(Oc2ccc(F)c(F)c2)nn2c(-c3ccc(C(=O)NC4CC4)c(C)c3)cnc12 [Example 529, N-cyclopropyl-4-[6-(3,4-difluorophenoxy)-8-(methylamino)imidazo [1,2-b]pyridazin-3-yl]-2-methylbenzamide] | 0.4 nM |
| CNc1cc(Oc2cc(F)ccc2C)nn2c(-c3ccc(C(=O)NC4CC4)c(C)c3)cnc12 [Example 530, N-cyclopropyl-4-[6-(5-fluoro-2-methylphenoxy)-8-(methylamino)imidazo [1,2-b]pyridazin-3-yl]-2-methylbenzamide] | 0.6 nM |
| CNc1ccccc1Oc1cc(NC)c2ncc(-c3ccc(C(=O)NC4CC4)c(C)c3)n2n1 [Example 531, N-cyclopropyl-2-methyl-4-{8-(methylamino)-6-[2-(methylamino)phenoxy]imidazo[1,2-b]pyridazin-3-yl} benzamide] | 14.8 nM |
| CNc1cc(N(C)c2ccccc2O)nn2c(-c3ccc(C(=O)NC4CC4)c(C)c3)cnc12 [Example 532, N-cyclopropyl-4-{6-[(2-hydroxyphenyl)(methyl)amino]-8-(methylamino)imidazo[1,2-b]pyridazin-3-yl}-2-methylbenzamide] | 0.2 nM |
| CNc1cc(Oc2cncc(F)c2)nn2c(-c3ccc(C(=O)NC4CC4)c(C)c3)cnc12 [Example 533, N-cyclopropyl-4-{6-[(5-fluoropyridin-3-yl)oxy]-8-(methylamino)imidazo [1,2-b]pyridazin-3-yl}-2-methylbenzamide] | 1.2 nM |
| CNc1cc(Oc2ccc(OC)cc2F)nn2c(-c3ccc(C(=O)NC4CC4)c(C)c3)cnc12 [Example 534, N-cyclopropyl-4-[6-(2-fluoro-4-methoxy-phenoxy)-8-(methyl-amino)imidazo[1,2-b]pyridazin-3-yl]-2-methylbenzamide] | 0.1 nM |
| CNc1cc(Oc2ccc(OC)c(F)c2)nn2c(-c3ccc(C(=O)NC4CC4)c(C)c3)cnc12 [Example 535, N-cyclopropyl-4-[6-(3-fluoro-4-methoxy-phenoxy)-8-(methyl-amino)imidazo[1,2-b]pyridazin-3-yl]-2-methylbenzamide] | 0.1 nM |
| Cc1ccc(F)cc1Oc1cc(NCCN2CCOCC2)c2ncc(-c3ccc(C(=O)NC4CC4)c(C)c3)n2n1 [Example 537, N-cyclopropyl-4-[6-(5-fluoro-2-methylphenoxy)-8-{[2-(morpholin-4-yl)ethyl]amino}imidazo[1,2-b]pyridazin-3-yl]-2-methylbenzamide] | 0.2 nM |
| CNc1ccccc1Oc1cc(NCCN2CCOCC2)c2ncc(-c3ccc(C(=O)NC4CC4)c(C)c3)n2n1 [Example 538, N-cyclopropyl-2-methyl-4-(6-[2-(methylamino)phenoxy]-8-{[2-(morpholin-4-yl)ethyl]amino}imidazo[1,2-b]pyridazin-3-yl)benzamide] | 0.8 nM |
| Cc1cc(-c2cnc3c(NCCN4CCOCC4)cc(N(C)c4ccccc4O)nn23)ccc1C(=O)NC1CC1 [Example 539, N-cyclopropyl-4-(6-[(2-hydroxy-phenyl)(methyl)amino]-8-{[2-(morpholin-4-yl)ethyl]amino}imidazo[1,2-b]pyridazin-3-yl)-2-methylbenzamide] | 0.2 nM |
| Cc1cc(-c2cnc3c(NCCN4CCOCC4)cc(Oc4ccc(F)c(F)c4)nn23)ccc1C(=O)NC1CC1 [Example 540, N-cyclopropyl-4-[6-(3,4-difluoro-phenoxy)-8-{[2-(morpholin-4-yl)ethyl]amino}imidazo[1,2-b]pyridazin-3-yl]-2-methyl-benzamide] | 0.1 nM |
